Data on nine compounds can be found in PubChem BioAssay AID1918993 (Molecular Pharmacology Branch, DTP, NCI, 2023).

For this test, the system named is 233499-124-R-J3-PDC complex spheroid growth. Put plainly: Anticancer human tumor 233499-124-R-J3-PDC patient-derived colon adenocarcinoma cell line growth inhibition [AhR]. The note with it: for viability, T/C: stronger effect = lower value; for IC50: curve of compound. The source says: Multicellular complex tumor spheroid response to aryl hydrocarbon receptor antagonists in combination with a variety of drugs and investigational agents in selected tumor cell lines
The current study was undertaken to assess response to aryl hydrocarbon receptor antagonists in combination with standard-of-care drugs and investigational agents in solid tumor complex spheroid models. Complex spheroids include a stromal component modeled by human endothelial cells (HUVEC) and fibroblasts modeled by human mesenchymal stem cells (MSCs). The concentration ranges selected for each drug and investigational agent were based upon clinically achievable concentrations if the clinical Cmax of the agent was known.
Compounds. The drugs and investigational agents: BAY 2416964 (NSC825713), GNF351 (NSC835774), CH-223191 (NSC835775), CPI-455 (NSC825282), aza-TdCyd (NSC777586), decitabine (NSC127716), belinostat (NSC758774), entinostat (NSC756642), pevonedistat (NSC761192), tazemetostat (NSC777109), talazoparib (NSC765396), olaparib (NSC753686), selinexor (NSC780203), nedisertib (M3814, NSC802822), bortezomib (NSC756655), venetoclax (NSC766270), doxorubicin (NSC123127), elimusertib (BAY189344, NSC800525), ceralasertib (AZD6738, NSC777638), TAK-243 (NSC785004), alisertib (NSC759677), etoposide (NSC141540), topotecan (NSC609699), eribulin (NSC707389), gemcitabine (NSC613327), carboplatin (NSC241240), cisplatin (NSC119875), and SN-38 (NSC673596) were obtained from the National Cancer Institute (NCI) Developmental Therapeutics Program Chemical Repository (32). The FDA-approved anticancer drug set is available from the Developmental Therapeutics Program at https://dtp.cancer.gov/organization/dscb/obtaining/available plates.htm. […] The stock solutions were prepared in dimethyl sulfoxide (DMSO, Sigma-Aldrich, St. Louis, MO, cat. D2650), except for the platinum compounds which were prepared in saline (Quality Biological, Gaithersburg, MD, cat. 114-055-101), at 800-fold the tested concentration and stored at -70 degrees C prior to their use. All drugs and investigational agents were tested over a range starting from a high concentration at or near the clinical Cmax and decreasing in half-log increments. If the clinical Cmax for an agent had not been determined, the highest concentration tested was 10 microM (Table 1).
Cell Culture. All cells were maintained in an incubator at 37 degrees C and 5% CO2 with 95% humidity. The PDC lines were cultured according to standard operating procedures established by the NCI PDMR (https://pdmr.cancer.gov). Briefly, all PDCs were thawed and cultured in Matrigel-coated flasks prepared with a working solution of 1X Ham's F-12 nutrient mix, without supplementation (Invitrogen, Waltham, MA, cat. 11765054), 100 U/mL penicillin-streptomycin (Invitrogen, cat. 15140122), and 2.5% Matrigel (Corning Inc., Corning, NY, cat. 354248) for the first three passages. All PDCs were cultured in complete DMEM/F-12 media containing advanced DMEM/F-12 (Invitrogen, cat. 12634028), 4.9% defined fetal bovine serum, heat inactivated (HyClone Laboratories Inc., Logan, UT, cat. SH30070.03HI), 389 ng/mL hydrocortisone (Sigma-Aldrich, cat. H4001), 9.7 ng/mL human EGF recombinant protein (Invitrogen, cat. PHG0313), 23.4 microg/mL adenine (Sigma-Aldrich, cat. A2786), 97.3 U/mL penicillin-streptomycin (Invitrogen, cat. 15140122), 1.9 mM L-glutamine (Invitrogen, cat. 25030081), and 9.7 microM Y-27632 dihydrochloride (Tocris Bioscience, Bristol, United Kingdom, cat. 1254). The PDCs were cultured in complete DMEM/F12 media without 10 microM Y-27632 dihydrochloride for at least two passages prior to the screen. The established cell lines NCI-H1341 and […] were cultured in DMEM/F-12, HEPES (Invitrogen, cat. 11330032), 5% defined fetal bovine serum (HyClone Laboratories Inc., cat. SH30070.03), ITS premix universal culture supplement [insulin (5 microg/mL), transferrin (5 microg/mL), and selenious acid (5 ng/mL)] […]

Values joined by “and” are separate entries in the source; they are usually repeats but may differ in a detail not shown here. Equal values may be shown once.
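Further: spheroids exposed to agents for seven days before reading.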

As to `Cn1ncnc1C1c2n[nH]c(=O)c3cc(F)cc(c23)NC1c1ccc(F)cc1` (configuration not stated), the concentration for half-maximal inhibition (IC50) is above 0.1 µM. Also, under “compound 0.000316 µM”, the viability, T/C was 97.9% and 96.7% and 93.9%. For the same compound, the viability, T/C (compound 0.001 µM) was 108% (2×) and 81%. For the same compound, where the note is “compound 0.00316 µM”, the viability, T/C is 108% and 106% and 97.9%. In addition, the viability, T/C (compound 0.01 µM) was 102% and 109% and 99.2%. In addition, the viability, T/C (compound 0.0316 µM) was 92.5% and 107% and 103%. Besides, the viability, T/C (compound 0.1 µM) is 96.4% and 91.3% and 92.3%.

`NS(=O)(=O)OCC1CC(n2ccc3c(NC4CCc5ccccc54)ncnc32)CC1O` (configuration not stated): the half-inhibitory concentration (IC50) was 0.632 µM and 0.486 µM and 0.266 µM. Further, the viability, T/C (compound 0.0316 µM) was 101% (2×) and 105%. Further, the viability, T/C (compound 0.1 µM) was 107% and 91.4% and 77.7%. For the same compound, the viability, T/C (compound 0.316 µM) is 98.2% and 66% and 47.5%. For the same compound, the viability, T/C (compound 1 µM) was 18.1% and 25.5% and 14%. Besides, the viability, T/C (compound 3.16 µM) was 5.89% and 5.66% and 5.16%. Also, the viability, T/C (compound 10 µM) is 3% and 4.4% and 2.68%.

Regarding `Nc1ccccc1NC(=O)c1ccc(CNC(=O)OCc2cccnc2)cc1`, the IC50 is 2.78 µM and 5.37 µM and 3.28 µM. Under “compound 0.0316 µM”, the viability, T/C was 91.6% and 84.4% and 104%. Where the note is “compound 0.1 µM”, the viability, T/C is 97.2% and 106% and 99.6%. Moreover, the viability, T/C (compound 0.316 µM) was 105% and 112% and 109%. In addition, the viability, T/C (compound 1 µM) is 98% and 113% and 100%. Also, for the setting “compound 3.16 µM”, the viability, T/C is 43.9% and 84.1% and 51.4%. For the same compound, for the setting “compound 10 µM”, the viability, T/C is 5.82% and 10.2% and 8.69%.

As to `Nc1ccn(C2OC(CO)C(O)C2(F)F)c(=O)n1` (configuration not stated), the viability, T/C (compound 0.0316 µM) is 108% and 76.6% and 99.2%; the viability, T/C (compound 0.1 µM) was 91.1% and 89.1% and 80.1%; the viability, T/C (compound 0.316 µM) was 75.9% and 48.8% and 61.6%; the viability, T/C (compound 1 µM) was 51.4% and 43.7% and 46.9%; the viability, T/C (compound 3.16 µM) was 45.5% and 50.5% and 62.4%; the viability, T/C (compound 10 µM) is 54.1% and 54.5% and 59.6%.

For the compound `Nc1ncn(C2CC(O)C(CO)O2)c(=O)n1` (configuration not stated), the 50% inhibitory concentration (IC50) was above 1 µM. Also, the viability, T/C (compound 0.00316 µM) is 100% and 95.5% and 94.7%. Besides, the viability, T/C (compound 0.01 µM) is 99.2% and 102% and 92.5%. In addition, where the note is “compound 0.0316 µM”, the viability, T/C was 89.7% and 85.1% and 97%. The viability, T/C (compound 0.1 µM) was 94.7% and 85.4% and 97.1%. Besides, the viability, T/C (compound 0.316 µM) was 92.5% and 90.6% and 99.1%. The viability, T/C (compound 1 µM) was 86.9% and 92.4% and 92.5%.

Consider `Nc1ncn(C2CC(O)C(CO)S2)c(=O)n1` (configuration not stated), for which the IC50 is above 0.3 µM. The viability, T/C (compound 0.000949 µM) was 94.5% and 95.6% and 104%. Besides, the viability, T/C (compound 0.003 µM) is 108% and 104% and 118%. Besides, where the note is “compound 0.00949 µM”, the viability, T/C is 102% and 112% and 110%. Besides, the viability, T/C (compound 0.03 µM) is 107% and 101% and 116%. The viability, T/C (compound 0.0949 µM) is 103% and 105% and 100%. Moreover, for the setting “compound 0.3 µM”, the viability, T/C was 98.6% and 109% and 104%.

For `O=C(C=Cc1cccc(S(=O)(=O)Nc2ccccc2)c1)NO`, the half-inhibitory concentration (IC50) was 6.32 µM and 6.14 µM and 5.43 µM. Further, for the setting “compound 0.0316 µM”, the viability, T/C was 98.2% and 96.2% and 89.6%. Also, the viability, T/C (compound 0.1 µM) is 112% and 105% and 102%. In addition, the viability, T/C (compound 0.316 µM) was 97.2% and 109% and 111%. Also, the viability, T/C (compound 1 µM) was 115% (2×) and 109%. Also, under “compound 3.16 µM”, the viability, T/C is 95.7% and 101% and 82.7%. Also, under “compound 10 µM”, the viability, T/C is 19.4% and 12.2% and 13.2%.

Regarding `O=C(C=Cn1cnc(-c2cc(C(F)(F)F)cc(C(F)(F)F)c2)n1)NNc1cnccn1`, the IC50 was above 3 µM. Further, the viability, T/C (compound 0.00949 µM) was 101% and 111% and 105%. For the setting “compound 0.03 µM”, the viability, T/C was 104% and 93.9% and 109%. In addition, the viability, T/C (compound 0.0949 µM) is 105% and 106% and 103%. Besides, the viability, T/C (compound 0.3 µM) is 108% and 96.7% and 90.6%. Under “compound 0.949 µM”, the viability, T/C was 81.6% and 74.5% and 86%. The viability, T/C (compound 3 µM) was 60.7% and 70.6% and 74.3%.

For the compound `O=C(c1cc(Cc2n[nH]c(=O)c3ccccc23)ccc1F)N1CCN(C(=O)C2CC2)CC1`, the IC50 was above 10 µM. Further, the viability, T/C (compound 0.0316 µM) is 103% and 99.9% and 91.7%. Under “compound 0.1 µM”, the viability, T/C is 97.6% and 103% and 104%. Besides, the viability, T/C (compound 0.316 µM) was 97.3% and 100% and 107%. Further, the viability, T/C (compound 1 µM) was 108% and 113% and 102%. Also, where the note is “compound 3.16 µM”, the viability, T/C was 108% and 92.6% and 99.9%. The viability, T/C (compound 10 µM) was 93.2% and 85.1% and 76.2%.
